Experimental data reported in US11357246B2, “High intensity sweeteners” (Firmenich Incorporated, priority 2015, dated 2022).
Where two headings read alike, the source gives them in different places.

Molecular target: T1, hT1R2/hT1R3 (Homo sapiens, UniProt Q7RTX0+Q8TE23)
T1 construct: expressed in transfected cells; parental cells lack the receptor
T1 sequence (Q8TE23 20-839): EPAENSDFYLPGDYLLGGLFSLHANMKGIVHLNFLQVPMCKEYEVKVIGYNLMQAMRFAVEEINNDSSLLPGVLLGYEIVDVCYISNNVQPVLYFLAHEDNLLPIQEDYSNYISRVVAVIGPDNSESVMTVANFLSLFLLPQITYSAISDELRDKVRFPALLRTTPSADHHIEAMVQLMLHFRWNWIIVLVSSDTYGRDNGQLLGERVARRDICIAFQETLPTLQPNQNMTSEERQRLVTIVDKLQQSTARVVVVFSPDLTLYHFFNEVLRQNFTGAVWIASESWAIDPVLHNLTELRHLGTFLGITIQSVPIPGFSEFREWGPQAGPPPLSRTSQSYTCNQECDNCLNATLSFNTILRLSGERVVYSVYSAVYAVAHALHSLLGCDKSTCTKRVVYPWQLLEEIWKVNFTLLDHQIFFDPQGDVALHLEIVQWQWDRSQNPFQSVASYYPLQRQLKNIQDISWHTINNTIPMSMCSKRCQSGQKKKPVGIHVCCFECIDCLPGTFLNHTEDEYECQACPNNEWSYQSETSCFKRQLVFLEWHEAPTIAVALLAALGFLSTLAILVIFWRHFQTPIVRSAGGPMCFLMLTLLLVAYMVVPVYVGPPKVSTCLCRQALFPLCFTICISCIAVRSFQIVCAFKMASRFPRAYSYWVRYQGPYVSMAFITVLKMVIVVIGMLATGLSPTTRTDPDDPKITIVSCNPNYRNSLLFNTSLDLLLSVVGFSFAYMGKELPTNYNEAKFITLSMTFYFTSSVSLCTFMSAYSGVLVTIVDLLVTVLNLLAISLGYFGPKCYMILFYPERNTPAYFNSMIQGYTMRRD
T1 sequence (Q7RTX0 21-852): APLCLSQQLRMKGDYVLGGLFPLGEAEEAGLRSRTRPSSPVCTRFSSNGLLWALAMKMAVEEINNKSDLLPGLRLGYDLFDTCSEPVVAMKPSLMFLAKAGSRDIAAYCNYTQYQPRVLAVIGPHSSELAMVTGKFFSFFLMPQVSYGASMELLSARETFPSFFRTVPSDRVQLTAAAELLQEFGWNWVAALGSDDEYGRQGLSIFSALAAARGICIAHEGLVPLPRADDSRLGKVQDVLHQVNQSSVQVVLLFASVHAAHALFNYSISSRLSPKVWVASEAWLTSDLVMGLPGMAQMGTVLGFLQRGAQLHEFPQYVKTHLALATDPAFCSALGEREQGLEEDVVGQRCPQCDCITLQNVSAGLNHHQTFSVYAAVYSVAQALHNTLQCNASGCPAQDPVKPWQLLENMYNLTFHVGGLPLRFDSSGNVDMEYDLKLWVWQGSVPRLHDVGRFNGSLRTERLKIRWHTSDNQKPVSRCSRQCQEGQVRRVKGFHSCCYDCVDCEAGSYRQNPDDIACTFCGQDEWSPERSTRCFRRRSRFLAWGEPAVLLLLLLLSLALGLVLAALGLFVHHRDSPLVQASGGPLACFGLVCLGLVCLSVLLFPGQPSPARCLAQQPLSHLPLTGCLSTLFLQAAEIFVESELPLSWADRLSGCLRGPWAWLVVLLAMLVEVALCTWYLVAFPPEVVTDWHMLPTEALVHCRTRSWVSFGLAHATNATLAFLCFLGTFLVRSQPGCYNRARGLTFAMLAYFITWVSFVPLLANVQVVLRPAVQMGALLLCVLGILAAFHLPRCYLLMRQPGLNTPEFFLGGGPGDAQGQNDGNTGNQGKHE
Assay: HTS-Sweet: FLIPR calcium fluorometric imaging assay in cells stably expressing the human sweet taste receptor and a promiscuous G protein
Format: cell-based
Description: Compound activity (EC50) was determined using an automated fluorometric imaging assay on a FLIPR instrument (Fluorometric […] Plate Reader, Molecular Devices, Sunnyvale, Calif.). Cell stably expressing the human sweet taste receptor and a promiscuous G protein were seeded into 384-well plates (at approximately 40,000 cells per well). Cells were grown for 24 hours at 37° C. Cells were then loaded with the calcium dye Fluo-4AM (Molecular Probes, Eugene, Oreg.), 4 μM in a phosphate buffered saline (D-PBS) (Invitrogen, Carlsbad, Calif.), for 1 hour at room temperature. After replacement with 25 μl D-PBS, stimulation was performed in the FLIPR instrument and at room temperature by the addition of 25 μl D-PBS supplemented with different stimuli at concentrations corresponding to twice the desired final level. Receptor activity was quantified by determining the maximal fluorescence increases (using a 480 nm excitation and 535 nm emission) after normalization to basal fluorescence intensity measured before stimulation.
For dose-responses analysis, stimuli were presented in duplicates at 10 different concentrations ranging from 0.4 μM to 200 μM. EC50 s were determined using a non-linear regression algorithm, where the Hill slope, bottom asymptotes and top asymptotes were allowed to vary.

[1] = FLIPR, Fluo-4AM, 10 concentrations 0.4 μM to 200 μM in duplicates, read-out: Compound EC50s for hT1R2/hT1R3

| Compound | EC50 [1] | EC50 |
| --- | --- | --- |
| C[C@H](CC[C@@H](O[C@@H]1O[C@H](CO[C@@H]2O[C@H](CO)[C@@H](O)[C@H](O)[C@H]2O)[C@@H](O)[C@H](O)[C@H]1O[C@@H]1O[C@H](CO)[C@@H](O)[C@H](O)[C@H]1O)C(C)(C)O)C1CC[C@@]2(C)C3CC=C4C(CC[C@H](O[C@@H]5O[C@H](CO[C@H]6O[C@H](CO[C@H]7O[C@@H](CO)[C@H](O)[C@@H](O)[C@@H]7O)[C@@H](O)[C@H](O)[C@H]6O)[C@@H](O)[C@H](O)[C@H]5O)C4(C)C)[C@]3(C)[C@H](O)C[C@]12C (stereo partly drawn) [Compound 2] | 17 to 30 µM |  |
| C[C@H](CC[C@@H](O[C@@H]1O[C@H](CO[C@H]2O[C@H](CO)[C@@H](O)[C@H](O)[C@H]2O)[C@@H](O)[C@H](O)[C@H]1O[C@@H]1O[C@H](CO)[C@@H](O)[C@H](O)[C@H]1O)C(C)(C)O)C1CC[C@@]2(C)C3CC=C4C(CC[C@H](O[C@@H]5O[C@H](CO)[C@@H](O)[C@H](O)[C@H]5O)C4(C)C)[C@]3(C)[C@H](O)C[C@]12C (stereo partly drawn) [Compound 3] |  | < 17 µM |
| C[C@H](CC[C@@H](O[C@@H]1O[C@H](CO[C@H]2O[C@H](CO)[C@@H](O)[C@H](O)[C@H]2O)[C@@H](O)[C@H](O)[C@H]1O[C@@H]1O[C@H](CO)[C@@H](O)[C@H](O)[C@H]1O)C(C)(C)O)C1CC[C@@]2(C)C3CC=C4C(CC[C@H](O[C@@H]5O[C@H](CO[C@H]6O[C@H](CO)[C@@H](O)[C@H](O)[C@H]6O)[C@@H](O)[C@H](O)[C@H]5O)C4(C)C)[C@]3(C)[C@H](O)C[C@]12C (stereo partly drawn) [Compound 4] |  | < 17 µM |
| C[C@H](CC[C@@H](O[C@@H]1O[C@H](CO[C@H]2O[C@H](CO)[C@@H](O)[C@H](O)[C@H]2O)[C@@H](O)[C@H](O)[C@H]1O[C@@H]1O[C@H](CO)[C@@H](O)[C@H](O)[C@H]1O)C(C)(C)O)C1CC[C@@]2(C)C3CC=C4C(CC[C@H](O[C@@H]5O[C@H](CO)[C@@H](O[C@H]6O[C@H](CO)[C@@H](O)[C@H](O)[C@H]6O)[C@H](O)[C@H]5O)C4(C)C)[C@]3(C)[C@H](O)C[C@]12C (stereo partly drawn) [Compound 5] | 17 to 30 µM |  |
| C[C@H](CC[C@@H](O[C@@H]1O[C@H](CO)[C@@H](O)[C@H](O)[C@H]1O[C@@H]1O[C@H](CO)[C@@H](O[C@H]2O[C@H](CO)[C@@H](O)[C@H](O)[C@H]2O)[C@H](O)[C@H]1O)C(C)(C)O)C1CC[C@@]2(C)C3CC=C4C(CC[C@H](O[C@@H]5O[C@H](CO)[C@@H](O)[C@H](O)[C@H]5O)C4(C)C)[C@]3(C)[C@H](O)C[C@]12C (stereo partly drawn) [Compound 9] | 17 to 30 µM |  |
| C[C@H](CC[C@@H](O[C@@H]1O[C@H](CO[C@H]2O[C@H](CO)[C@@H](O)[C@H](O)[C@H]2O)[C@@H](O)[C@H](O)[C@H]1O[C@@H]1O[C@H](CO)[C@@H](O)[C@H](O)[C@H]1O)C(C)(C)O)C1CC[C@@]2(C)C3CC=C4C(CC[C@H](O[C@@H]5O[C@H](CO)[C@@H](O)[C@H](O)[C@H]5O)C4(C)C)[C@]3(C)C(=O)C[C@]12C (stereo partly drawn) [Compound 11] | > 30 µM |  |
| CC(CCC(OC1OC(COC2OC(CO)C(O)C(O)C2O)C(O)C(O)C1OC1OC(CO)C(O)C(O)C1O)C(C)(C)O)C1CCC2(C)C3CC=C4C(CCC(OC5OC(COC6OC(CO)C(O)C(O)C6O)C(O)C(O)C5O)C4(C)C)C3(C)C(O)CC12C (stereo not drawn) [Compound 12] |  | 17 to 30 µM |
| C[C@H](CC[C@@H](O[C@@H]1O[C@H](CO)[C@@H](O)[C@H](O)[C@H]1O[C@@H]1O[C@H](CO)[C@@H](O[C@@H]2O[C@H](CO)[C@@H](O)[C@H](O)[C@H]2O)[C@H](O)[C@H]1O)C(C)(C)O)C1CC[C@@]2(C)C3CC=C4C(CC[C@H](O[C@@H]5O[C@H](CO)[C@@H](O)[C@H](O)[C@H]5O)C4(C)C)[C@]3(C)[C@H](O)C[C@]12C (stereo partly drawn) [Compound 13] | 17 to 30 µM |  |
| C[C@H](CC[C@@H](O[C@@H]1O[C@H](CO[C@H]2O[C@H](CO)[C@@H](O)[C@H](O)[C@H]2O)[C@@H](O)[C@H](O)[C@H]1O[C@@H]1O[C@H](CO)[C@@H](O[C@H]2O[C@H](CO)[C@@H](O)[C@H](O)[C@H]2O)[C@H](O)[C@H]1O)C(C)(C)O)C1CC[C@@]2(C)C3CC=C4C(CC[C@H](O)C4(C)C)[C@]3(C)[C@H](O)C[C@]12C (stereo partly drawn) [Compound 16] | 17 to 30 µM |  |
| C[C@H](CC[C@@H](O[C@@H]1O[C@H](CO[C@H]2O[C@H](CO)[C@@H](O)[C@H](O)[C@H]2O)[C@@H](O)[C@H](O)[C@H]1O[C@@H]1O[C@H](CO)[C@@H](O)[C@H](O)[C@H]1O)C(C)(C)O)C1CC[C@@]2(C)C3CC=C4C(CC[C@H](O[C@@H]5O[C@H](CO[C@@H]6O[C@H](CO)[C@@H](O)[C@H](O)[C@H]6O)[C@@H](O)[C@H](O)[C@H]5O)C4(C)C)[C@]3(C)[C@H](O)C[C@]12C (stereo partly drawn) [Compound 23] |  | < 17 µM |
| C[C@H](CC[C@@H](O[C@@H]1O[C@H](CO[C@@H]2O[C@H](CO)[C@@H](O)[C@H](O)[C@H]2O)[C@@H](O[C@@H]2O[C@H](CO)[C@@H](O)[C@H](O)[C@H]2O)[C@H](O)[C@H]1O)C(C)(C)O)C1CC[C@@]2(C)C3CC=C4C(CC[C@H](O[C@@H]5C[C@H](COC6O[C@H](CO)[C@@H](O)[C@H](O)[C@H]6O)[C@@H](O)[C@H](O)[C@H]5O)C4(C)C)[C@]3(C)C(=O)C[C@]12C (stereo partly drawn) [Compound 29] | > 30 µM |  |
| C[C@H](CC[C@@H](O[C@@H]1O[C@H](CO[C@@H]2O[C@H](CO[C@@H]3O[C@H](CO)[C@@H](O)[C@H](O)[C@H]3O)[C@@H](O)[C@H](O)[C@H]2O)[C@@H](O)[C@H](O)[C@H]1O[C@@H]1O[C@H](CO)[C@@H](O)[C@H](O)[C@H]1O)C(C)(C)O)C1CC[C@@]2(C)C3CC=C4C(CC[C@H](O[C@@H]5O[C@H](COC6O[C@H](CO)[C@@H](O)[C@H](O)[C@H]6O)[C@@H](O)[C@H](O)[C@H]5O)C4(C)C)[C@]3(C)[C@H](O)C[C@]12C (stereo partly drawn) [Compound 30] | > 30 µM |  |
| C[C@H](CC[C@@H](O[C@@H]1O[C@H](CO[C@@H]2O[C@H](CO)[C@@H](O)[C@H](O)[C@H]2O)[C@@H](O)[C@H](O)[C@H]1O[C@@H]1O[C@H](CO)[C@@H](O)[C@H](O)[C@H]1O)C(C)(C)O)C1CC[C@@]2(C)C3CC=C4C(CC[C@H](O[C@@H]5O[C@H](CO[C@@H]6O[C@H](CO)[C@@H](O)[C@H](O)[C@H]6O)[C@@H](O)[C@H](O)[C@H]5O)C4(C)C)[C@]3(C)C=C[C@]12C (stereo partly drawn) [Compound 31] | > 30 µM |  |
| C[C@H](CC[C@@H](O[C@@H]1O[C@H](CO)[C@@H](O)[C@H](O)[C@H]1O[C@@H]1O[C@H](CO)[C@@H](O)[C@H](O)[C@H]1O)C(C)(C)O)C1CC[C@@]2(C)C3CC=C4C(CC[C@H](O[C@@H]5O[C@H](CO[C@@H]6O[C@H](CO)[C@@H](O)[C@H](O)[C@H]6O)[C@@H](O)[C@H](O)[C@H]5O[C@H]5O[C@@H](CO)[C@H](O)[C@@H](O)[C@@H]5O)C4(C)C)[C@]3(C)[C@H](O)C[C@]12C (stereo partly drawn) [Compound 32] | > 30 µM |  |
| C[C@H](CC[C@@H](O[C@@H]1O[C@H](CO)[C@@H](O)[C@H](O)[C@H]1O[C@@H]1O[C@H](CO)[C@@H](O)[C@H](O)[C@H]1O)C(C)(C)O)C1CC[C@@]2(C)C3CC=C4C(CC[C@H](O[C@@H]5O[C@H](CO[C@H]6O[C@H](COC7O[C@H](CO)[C@@H](O)[C@H](O)[C@H]7O)[C@@H](O)[C@H](O)[C@H]6O)[C@@H](O)[C@H](O)[C@H]5O)C4(C)C)[C@]3(C)[C@H](O)C[C@]12C (stereo partly drawn) [Compound 33] | > 30 µM |  |
